Experimental findings from PMC11580438, “Enhanced cell stress response and protein degradation capacity underlie artemisinin resistance in Plasmodium falciparum” (mSphere, 2024) are described below.

For test [1], the target named is T1, P. falciparum proteasome, β1 activity (20S CP / 26S) (Plasmodium falciparum, UniProt Q8I0U7).
T1 construct: gene PF3D7_0931800; native proteasome in NP-40 lysate of 26-30 hpi trophozoites; with Proteasome subunit beta type-7 (beta2 subunit); Proteasome subunit beta type-5
T1 sequence (Q8I0U7 entry or part of it): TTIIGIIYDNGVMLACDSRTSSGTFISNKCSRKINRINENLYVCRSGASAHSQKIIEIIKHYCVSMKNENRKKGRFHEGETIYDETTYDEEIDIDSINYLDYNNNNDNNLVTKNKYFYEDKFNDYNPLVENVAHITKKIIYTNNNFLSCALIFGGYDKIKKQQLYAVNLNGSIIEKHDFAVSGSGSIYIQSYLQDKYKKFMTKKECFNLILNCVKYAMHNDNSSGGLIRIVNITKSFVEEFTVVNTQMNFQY
In words: Ac-nLPnLD-AMC cleavage in lysate of treated trophozoites. Format: cell-based. The following applies: intact parasites treated 3 h with 50 or 700 nM, then lysed; direct action on the proteasome not shown; non-specific alkylator; pH 7.5, 37 °C.

The target of test [2] is T2, P. falciparum proteasome, β2 activity (20S CP / 26S) (Plasmodium falciparum, UniProt Q8I6T3).
T2 construct: gene PF3D7_1328100; native proteasome in NP-40 lysate of 26-30 hpi trophozoites; with Proteasome subunit beta type-5; Proteasome subunit beta type-6 (beta1 subunit)
T2 sequence (Q8I6T3 entry or part of it): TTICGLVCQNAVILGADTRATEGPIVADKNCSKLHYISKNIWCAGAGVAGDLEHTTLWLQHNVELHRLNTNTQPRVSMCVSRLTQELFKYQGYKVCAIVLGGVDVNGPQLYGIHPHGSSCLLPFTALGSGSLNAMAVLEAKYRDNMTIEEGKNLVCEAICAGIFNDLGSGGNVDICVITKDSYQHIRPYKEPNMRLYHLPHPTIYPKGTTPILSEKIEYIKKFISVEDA
The experiment in a line: Ac-RLR-AMC cleavage in lysate of treated trophozoites. Format: cell-based. The following applies: intact parasites treated 3 h with 50 or 700 nM, then lysed; direct action on the proteasome not shown; non-specific alkylator; pH 7.5, 37 °C.

In test [3] the target is T3, P. falciparum proteasome, β5 activity (20S CP / 26S) (Plasmodium falciparum, UniProt Q8IJT1).
T3 construct: gene PF3D7_1011400; native proteasome in NP-40 lysate of 26-30 hpi trophozoites; with Proteasome subunit beta type-7 (beta2 subunit); Proteasome subunit beta type-6 (beta1 subunit)
T3 sequence (Q8IJT1 entry or part of it): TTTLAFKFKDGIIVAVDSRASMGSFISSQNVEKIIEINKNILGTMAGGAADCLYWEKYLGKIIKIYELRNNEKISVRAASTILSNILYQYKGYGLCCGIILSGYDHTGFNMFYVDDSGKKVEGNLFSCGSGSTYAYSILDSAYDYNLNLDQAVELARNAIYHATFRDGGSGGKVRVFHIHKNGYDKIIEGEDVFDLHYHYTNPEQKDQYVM
In words: Suc-LLVY-AMC cleavage in lysate of treated trophozoites. The class given is cell-based. The following applies: intact parasites treated 3 h with 50 or 700 nM, then lysed; direct action on the proteasome not shown; non-specific alkylator; pH 7.5, 37 °C.

The subject of test [4] is T4, P. falciparum proteasome, β5 activity (20S CP / 26S).
T4 construct: gene beta5
The following applies: intact Kelch13 C580Y parasites treated 3 h, then lysed; direct action on the proteasome not shown; 6 µM substrate, pH 7.5, 37 °C; mutation in the neighbouring β2 subunit, β5 wild type.

The target in test [5] is T3, P. falciparum proteasome, β5 activity (20S CP / 26S). In words: Suc-LLVY-AMC cleavage in lysate of treated trophozoites. The class given is cell-based.

In the case of `C[C@@H]1CC[C@H]2[C@@H](C)C(O)O[C@@H]3O[C@@]4(C)CC[C@@H]1[C@]32OO4` (some centres unmarked) [DHA], the “% activity” value in test [1], in test [2] and in test [3] was “DHA inhibited all three catalytic subunits of proteasomes derived from Kelch13^WT” in each case.
Turning to `c1cc(C2CCC3(CC2)OOC2(O3)C3CC4CC(C3)CC2C4)ccc1OCCN1CCOCC1` (centres unmarked) [OZ439], in test [4], the “% inhibition at 3 μM” value is listed as 52%. In test [5], this compound yielded an inhibition at 3 µM of 28%.
